Experiment in all cases: AE Enzyme Inhibition Assay
The target of assay [1] is T1, Clan CD, family C13, asparaginyl endopeptidase-like cysteine peptidase (Trichomonas vaginalis (strain ATCC PRA-98 / G3), UniProt A2DYT2).
T1 sequence (A2DYT2 whole entry): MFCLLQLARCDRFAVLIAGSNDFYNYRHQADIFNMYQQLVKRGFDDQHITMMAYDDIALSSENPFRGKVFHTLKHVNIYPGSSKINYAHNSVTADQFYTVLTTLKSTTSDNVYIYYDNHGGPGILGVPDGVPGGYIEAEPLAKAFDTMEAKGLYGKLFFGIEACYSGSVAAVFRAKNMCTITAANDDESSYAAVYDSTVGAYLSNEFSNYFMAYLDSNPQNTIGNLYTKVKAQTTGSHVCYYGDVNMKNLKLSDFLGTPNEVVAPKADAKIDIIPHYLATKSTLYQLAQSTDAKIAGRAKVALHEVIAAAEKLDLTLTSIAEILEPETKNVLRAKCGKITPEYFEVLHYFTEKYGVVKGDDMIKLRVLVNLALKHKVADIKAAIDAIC
Here is the method:
(§1) AE activity in the induction medium was measured with the substrate Cbz-Ala-Ala-Asn-AMC. In a black 96-well microtiter plate, aza-peptidyl inhibitors were added to the reaction buffer containing the activated enzyme, and allowed to incubate at room temperature for 20 min. Then, substrate Cbz- Ala-Ala-Asn-AMC was added and the reaction allowed proceeding for 20 min. Plotting the relative fluorescence units (RFU)/min against the inhibitor concentration (uM) permitted calculation of the IC50 value.

For assay [2], the target named is T2, Legumain (Schistosoma mansoni, UniProt Q9NFY9).
T2 sequence (Q9NFY9 whole entry): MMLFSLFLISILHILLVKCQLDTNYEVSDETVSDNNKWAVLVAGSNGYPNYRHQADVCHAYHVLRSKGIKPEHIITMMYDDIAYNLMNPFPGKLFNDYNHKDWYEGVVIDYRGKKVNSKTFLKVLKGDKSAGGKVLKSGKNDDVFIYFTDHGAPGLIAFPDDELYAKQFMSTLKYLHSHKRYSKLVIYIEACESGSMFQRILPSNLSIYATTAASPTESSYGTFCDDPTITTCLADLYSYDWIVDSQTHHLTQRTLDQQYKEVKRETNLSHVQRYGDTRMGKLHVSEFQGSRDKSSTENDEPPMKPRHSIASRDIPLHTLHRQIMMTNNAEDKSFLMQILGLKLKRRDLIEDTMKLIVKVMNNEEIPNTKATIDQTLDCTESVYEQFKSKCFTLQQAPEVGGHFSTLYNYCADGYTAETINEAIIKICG
Here is the method: as §1

The target in assay [3] is T3, Legumain (Ixodes ricinus, UniProt Q6PRC7).
T3 sequence (Q6PRC7 whole entry): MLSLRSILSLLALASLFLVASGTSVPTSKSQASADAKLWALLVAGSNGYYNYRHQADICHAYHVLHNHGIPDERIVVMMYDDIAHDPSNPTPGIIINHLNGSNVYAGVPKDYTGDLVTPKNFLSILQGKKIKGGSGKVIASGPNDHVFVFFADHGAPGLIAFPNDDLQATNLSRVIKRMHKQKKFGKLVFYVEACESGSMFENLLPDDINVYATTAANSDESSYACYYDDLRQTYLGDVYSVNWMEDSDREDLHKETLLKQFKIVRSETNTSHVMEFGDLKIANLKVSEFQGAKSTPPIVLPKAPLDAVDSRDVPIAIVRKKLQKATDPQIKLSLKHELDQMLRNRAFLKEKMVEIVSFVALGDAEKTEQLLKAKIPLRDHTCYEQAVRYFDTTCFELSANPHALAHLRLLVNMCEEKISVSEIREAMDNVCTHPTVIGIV
The following applies: 25 °C. Here is the method: as §1

Some results are limits rather than exact numbers.

Take `C[C@H](NC(=O)OCc1ccccc1)C(=O)N[C@@H](C)C(=O)NN(CC(N)=O)C(=O)C=CC(=O)N1CCCCC1` [benzyl N-[(1S)-1-{[(2S)-1-[(2E)-N-(carbamoylmethyl)-4-oxo-4-(piperidin-1-yl)but-2-enehydrazido]-1-oxopropan-2-yl]carbamoyl}ethyl]carbamate]: the IC50 in assay [1] (pH 6.8, 22 °C) worked out at 500 nM; in assay [2] (pH 6.8, 22 °C) it was 1000 nM.

With `C[C@H](NC(=O)OCc1ccccc1)C(=O)N[C@@H](C)C(=O)NN(CC(N)=O)C(=O)C=CC(=O)N1CCc2ccccc21` [benzyl N-[(1S)-1-{[(1S)-1-[N'-(carbamoylmethyl)-N'-[(2E)-4-(2,3-dihydro-1H-indol-1-yl)-4-oxobut-2-enoyl]hydrazinecarbonyl]ethyl]carbamoyl}ethyl]carbamate], the results for the IC50 in assay [1] (25 °C), in assay [2] (25 °C) and in assay [3] were 50 nM, 70 nM and 18 nM, respectively.

For `C[C@H](NC(=O)OCc1ccccc1)C(=O)N[C@@H](C)C(=O)NN(CC(N)=O)C(=O)C=CC(=O)N(Cc1ccccc1)Cc1ccc2ccccc2c1` [benzyl N-[(1S)-1-{[(2S)-1-[(2E)-N-benzyl-3-[N-(carbamoylmethyl)hydrazido]-N-(naphthalen-2-ylmethyl)prop-2-enamide]-1-oxopropan-2-yl]carbamoyl}ethyl]carbamate], the IC50 worked out at 6 nM in assay [1] (25 °C), 70 nM in assay [2] (25 °C) and 8 nM in assay [3].

In the case of `C[C@H](NC(=O)OCc1ccccc1)C(=O)N[C@@H](C)C(=O)NN(CC(N)=O)C(=O)C=Cc1ccco1` [benzyl N-[(1S)-1-{[(1S)-1-[N'-(carbamoylmethyl)-N'-[(2E)-3-(furan-2-yl)prop-2-enoyl]hydrazinecarbonyl]ethyl]carbamoyl}ethyl]carbamate], the 50% inhibitory concentration (IC50) was more than 2000 nM in assay [2] (pH 6.8, 22 °C) and 7500 nM in assay [3].

On to `C[C@H](NC(=O)OCc1ccccc1)C(=O)N[C@@H](C)C(=O)NN(CC(N)=O)C(=O)C=CC(=O)N(Cc1ccccc1)c1ccccc1` [benzyl N-[(1S)-1-{[(2S)-1-[(2E)-N-benzyl-3-[N-(carbamoylmethyl)hydrazido]-N-phenylprop-2-enamide]-1-oxopropan-2-yl]carbamoyl}ethyl]carbamate], for which the IC50 was less than 1 nM in assay [1] (25 °C); 70 nM in assay [2] (pH 6.8, 22 °C); less than 1 nM in assay [3].

As to `CCOC(=O)C=CC(=O)N(CC(N)=O)NC(=O)[C@H](C)NC(=O)[C@H](C)NC(=O)OCc1ccccc1` [ethyl (2E)-4-[(2S)-2-[(2S)-2-{[(benzyloxy)carbonyl]amino}propanamido]-N'-(carbamoylmethyl)propanehydrazido]-4-oxobut-2-enoate], the IC50 in assay [1] (pH 6.8, 22 °C) was determined as 4.5 nM; in assay [3], 4.5 nM.

Turning to `COc1ccc(CN(Cc2ccccc2)C(=O)C=CC(=O)N(CC(N)=O)NC(=O)[C@H](C)NC(=O)[C@H](C)NC(=O)OCc2ccccc2)cc1` [benzyl N-[(1S)-1-{[(2S)-1-[(2E)-N-benzyl-3-[N-(carbamoylmethyl)hydrazido]-N-[(4-methoxyphenyl)methyl]prop-2-enamide]-1-oxopropan-2-yl]carbamoyl}ethyl]carbamate], the half-maximal inhibitory concentration (IC50) in assay [1] (25 °C) was found to be 2.3 nM; in assay [2] (pH 6.8, 22 °C), 90 nM; in assay [3], 12 nM.

For `C[C@H](NC(=O)OCc1ccccc1)C(=O)N[C@@H](C)C(=O)NN(CC(N)=O)C(=O)C=CC(=O)N(C)CCc1ccccc1` [benzyl N-[(1S)-1-{[(2S)-1-[(2E)-3-[N-(carbamoylmethyl)hydrazido]-N-methyl-N-(2-phenylethyl)prop-2-enamide]-1-oxopropan-2-yl]carbamoyl}ethyl]carbamate], the IC50 in assay [1] (25 °C) was 50 nM; in assay [2] (pH 6.8, 22 °C) it was 600 nM.

With `C[C@H](NC(=O)OCc1ccccc1)C(=O)N[C@@H](C)C(=O)NN(CC(N)=O)C(=O)C=CC(=O)N(C)Cc1cccc2ccccc12` [benzyl N-[(1S)-1-{[(2S)-1-[(2E)-3-[N-(carbamoylmethyl)hydrazido]-N-methyl-N-(naphthalen-1-ylmethyl)prop-2-enamide]-1-oxopropan-2-yl]carbamoyl}ethyl]carbamate], the IC50 in assay [1] (25 °C) is less than 1 nM; in assay [2] (pH 6.8, 22 °C) it was 35 nM; in assay [3] it was 5.5 nM.

`C[C@H](NC(=O)OCc1ccccc1)C(=O)N[C@@H](C)C(=O)NN(CC(N)=O)C(=O)C=CC(=O)N1CC=C(c2ccccc2)CC1` [benzyl N-[(1S)-1-{[(2S)-1-[(2E)-N-(carbamoylmethyl)-4-oxo-4-(4-phenyl-1,2,3,6-tetrahydropyridin-1-yl)but-2-enehydrazido]-1-oxopropan-2-yl]carbamoyl}ethyl]carbamate]: the IC50 was 10 nM in assay [1] (25 °C), 750 nM in assay [2] (25 °C) and 85 nM in assay [3].

With `C[C@H](NC(=O)OCc1ccccc1)C(=O)N[C@@H](C)C(=O)NN(CC(N)=O)C(=O)C=CC(=O)NCc1ccc(F)cc1` [benzyl N-[(1S)-1-{[(2S)-1-[(2E)-3-[N-(carbamoylmethyl)hydrazido]-N-[(4-fluorophenyl)methyl]prop-2-enamide]-1-oxopropan-2-yl]carbamoyl}ethyl]carbamate], the IC50 came out at 75 nM in assay [1] (pH 6.8, 22 °C); 800 nM in assay [2] (pH 6.8, 22 °C); 250 nM in assay [3].

For the molecule `C[C@H](NC(=O)OCc1ccccc1)C(=O)N[C@@H](C)C(=O)NN(CC(N)=O)C(=O)C=CC(=O)N(C)C(Cc1ccccc1)C(=O)N(C)CCc1ccccc1` (stereo partly drawn) [benzyl N-[(1S)-1-{[(2S)-1-[(2E)-3-[N-(carbamoylmethyl)hydrazido]-N-methyl-N-{1-[methyl(2-phenylethyl)carbamoyl]-2-phenylethyl}prop-2-enamide]-1-oxopropan-2-yl]carbamoyl}ethyl]carbamate], the IC50 in assay [1] (25 °C) is 80 nM; in assay [2] (25 °C), 750 nM; in assay [3] it was 300 nM.

As for `C[C@H](NC(=O)OCc1ccccc1)C(=O)N[C@@H](C)C(=O)NN(CC(N)=O)C(=O)C=CC(=O)N(C)Cc1ccccc1` [benzyl N-[(1S)-1-{[(2S)-1-[(2E)-N-benzyl-3-[N-(carbamoylmethyl)hydrazido]-N-methylprop-2-enamide]-1-oxopropan-2-yl]carbamoyl}ethyl]carbamate], the 50% inhibitory concentration (IC50) in assay [1] (25 °C) is 0.55 nM; in assay [3], less than 1 nM.

Molecule `CC=CC=CC(=O)N(CC(N)=O)NC(=O)[C@H](C)NC(=O)[C@H](C)NC(=O)OCc1ccccc1` [benzyl N-[(1S)-1-{[(1S)-1-[N'-(carbamoylmethyl)-N'-(2E,4E)-hexa-2,4-dienoylhydrazinecarbonyl]ethyl]carbamoyl}ethyl]carbamate] yielded an IC50 in assay [1] (25 °C) of 8000 nM. This counts as single-digit micromolar.

For the molecule `CCN(CC)C(=O)C=CC(=O)N(CC(N)=O)NC(=O)[C@H](C)NC(=O)[C@H](C)NC(=O)OCc1ccccc1` [benzyl N-[(1S)-1-{[(1S)-1-[N'-(carbamoylmethyl)-N'-[(2E)-3-(diethylcarbamoyl)prop-2-enoyl]hydrazinecarbonyl]ethyl]carbamoyl}ethyl]carbamate], the IC50 was 2000 nM in assay [1] (pH 6.8, 22 °C) and 2700 nM in assay [3].

In the case of `C[C@H](NC(=O)OCc1ccccc1)C(=O)N[C@@H](C)C(=O)NN(CC(N)=O)C(=O)C=CC(=O)OCc1ccccc1` [benzyl (2E)-3-{N'-[(2S)-2-[(2S)-2-{[(benzyloxy)carbonyl]amino}propanamido]propanoyl]-N-(carbamoylmethyl)hydrazinecarbonyl}prop-2-enoate], the IC50 is 5 nM in assay [1] (pH 6.8, 22 °C) and less than 1 nM in assay [3].

As to `C[C@H](NC(=O)OCc1ccccc1)C(=O)N[C@@H](C)C(=O)NN(CC(N)=O)C(=O)C=CC(=O)c1ccccc1` [benzyl N-[(1S)-1-{[(2S)-1-[(2E)-N-(carbamoylmethyl)-4-oxo-4-phenylbut-2-enehydrazido]-1-oxopropan-2-yl]carbamoyl}ethyl]carbamate], the concentration for half-maximal inhibition (IC50) in assay [1] (25 °C) was 10000 nM; in assay [3], more than 20000 nM.

Broadly, the IC50 is the concentration at which inhibition is half-maximal. Read a low IC50 as inhibition by little substance.

The values above are taken from BindingDB's records for doi:10.1021/jm701311r (Georgia Institute of Technology, 2008).
